Measurements from US12577229B2, “Substituted {5-methoxy-6-[(5-methoxypyridin-2-yl)methoxy]pyridin-3-yl} methyl compounds as CSF-1R inhibitors” (Eli Lilly and Company, priority 2020, dated 2026).
pIC50: −log10 of the molar value.

Assays:
human PDGFRβ = molecular target: T1, human PDGFRβ (Homo sapiens, UniProt P09619); assay: DiscoverX PathHunter RTK cell based functional assay, PDGFRβ; settings: PDGFRβ U2OS cells, 3 nM PDGF-BB agonist, n=4
T1 construct: enzyme fragment for Enzyme Fragment Complementation (β-galactosidase fragment); host or cells: U2OS
T1 sequence (P09619 33-1106): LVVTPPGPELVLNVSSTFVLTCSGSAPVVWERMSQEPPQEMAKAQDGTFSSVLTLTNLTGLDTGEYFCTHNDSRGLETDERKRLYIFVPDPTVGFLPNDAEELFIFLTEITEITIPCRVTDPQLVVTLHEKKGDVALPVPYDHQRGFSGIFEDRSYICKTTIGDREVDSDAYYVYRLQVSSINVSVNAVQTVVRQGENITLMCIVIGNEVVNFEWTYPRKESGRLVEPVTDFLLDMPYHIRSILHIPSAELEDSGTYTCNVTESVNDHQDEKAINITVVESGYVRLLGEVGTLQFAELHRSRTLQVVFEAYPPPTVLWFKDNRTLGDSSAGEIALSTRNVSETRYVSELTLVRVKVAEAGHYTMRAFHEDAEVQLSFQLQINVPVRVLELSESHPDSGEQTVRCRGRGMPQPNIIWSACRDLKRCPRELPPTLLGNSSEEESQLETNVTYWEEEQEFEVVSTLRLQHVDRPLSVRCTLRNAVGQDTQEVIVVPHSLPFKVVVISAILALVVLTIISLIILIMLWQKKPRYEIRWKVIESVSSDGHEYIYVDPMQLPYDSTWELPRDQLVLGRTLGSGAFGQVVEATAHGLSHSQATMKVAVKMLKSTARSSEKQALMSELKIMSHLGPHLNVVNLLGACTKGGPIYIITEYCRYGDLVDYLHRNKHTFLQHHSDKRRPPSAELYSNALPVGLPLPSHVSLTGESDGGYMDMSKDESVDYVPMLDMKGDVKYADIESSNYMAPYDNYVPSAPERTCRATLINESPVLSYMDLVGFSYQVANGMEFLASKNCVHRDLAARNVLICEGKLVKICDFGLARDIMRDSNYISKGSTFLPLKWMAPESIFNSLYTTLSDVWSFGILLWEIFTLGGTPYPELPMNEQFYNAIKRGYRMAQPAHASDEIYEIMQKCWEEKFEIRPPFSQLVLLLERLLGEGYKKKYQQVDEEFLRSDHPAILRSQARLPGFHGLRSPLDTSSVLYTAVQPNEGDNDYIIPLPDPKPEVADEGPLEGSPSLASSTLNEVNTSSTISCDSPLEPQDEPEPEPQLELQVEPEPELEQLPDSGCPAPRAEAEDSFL
Method: DiscoverX® PathHunter Receptor Tyrosine Kinase (RTK) Cell Based Functional Assay
For in vitro PDGFRβ (Accession NM_002609, Part No. 93-0493C3) and c-Kit (Accession NM_000222, Part No. 93-0853C3) cellular assays, the test compounds are prepared in DMSO to make up a 10 mM stock solution. The stock solution is serially diluted two-fold in DMSO to obtain a twenty-point curve with final compound concentrations ranging from 20.0 μM to 0.019 nM.
DiscoverX® PathHunter Receptor Tyrosine Kinase (RTK) cell based functional assays are utilized to profile compounds using Enzyme Fragment Complementation technology with human PDGFRβ U2OS cells and human c-Kit U2OS cells. Cells are continuously cultured from cell passage 5 up to cell passage 30 in AssayComplete™ Cell Culture Kit-103 (DiscoverX®, 92-3103G) media containing 500 μg/mL G418 and 250 μg/mL hygromycin. PDGFRβ or c-Kit cells (27 μL) in media (DiscoverX®, 93-0563R16B) are seeded at 1.5×10^4 cells/well into all wells of a Corning 384 poly-d-lysine coated white plate. The cell plates are then incubated overnight at 37° C., 5.0% CO2. Compound serial dilutions are then added to rows A-P, columns 3-22. DMSO and inhibitor controls are added to rows A-P, columns 1-2 and 23-24, respectively. Cell plates with compound or controls are incubated for 1 hour at 37° C., 5.0% CO2. […] After 1 hour, cell plates are read on a chemiluminescence capable plate reader. […]

KIT = KIT (Homo sapiens, UniProt P10721); assay: biochemical
Chain of KIT (P10721 26-976): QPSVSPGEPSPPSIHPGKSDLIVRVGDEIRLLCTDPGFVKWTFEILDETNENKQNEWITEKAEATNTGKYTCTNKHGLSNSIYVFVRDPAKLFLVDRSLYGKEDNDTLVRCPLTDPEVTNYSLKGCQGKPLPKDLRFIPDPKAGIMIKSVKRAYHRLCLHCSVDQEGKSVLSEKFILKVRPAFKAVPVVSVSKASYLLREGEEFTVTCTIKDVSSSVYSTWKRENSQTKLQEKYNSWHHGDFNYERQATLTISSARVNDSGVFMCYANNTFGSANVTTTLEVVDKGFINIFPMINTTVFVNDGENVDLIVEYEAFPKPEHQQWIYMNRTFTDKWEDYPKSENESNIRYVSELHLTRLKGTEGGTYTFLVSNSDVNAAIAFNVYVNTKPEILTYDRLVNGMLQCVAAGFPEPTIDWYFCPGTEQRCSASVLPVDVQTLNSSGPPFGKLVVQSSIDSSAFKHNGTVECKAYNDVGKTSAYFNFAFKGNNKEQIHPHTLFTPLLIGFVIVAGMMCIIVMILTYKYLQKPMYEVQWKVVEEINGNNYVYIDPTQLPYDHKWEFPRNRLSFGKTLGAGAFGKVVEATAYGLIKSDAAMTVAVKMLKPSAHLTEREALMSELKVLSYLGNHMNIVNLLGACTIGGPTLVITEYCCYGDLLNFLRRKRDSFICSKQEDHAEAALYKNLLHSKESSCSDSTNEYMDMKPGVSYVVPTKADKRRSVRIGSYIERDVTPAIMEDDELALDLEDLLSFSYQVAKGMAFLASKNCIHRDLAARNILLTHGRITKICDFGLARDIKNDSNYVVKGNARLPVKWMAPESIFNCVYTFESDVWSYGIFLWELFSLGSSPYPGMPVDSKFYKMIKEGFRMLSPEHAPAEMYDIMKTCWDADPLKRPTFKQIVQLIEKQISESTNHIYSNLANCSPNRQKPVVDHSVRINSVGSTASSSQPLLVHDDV
Method: (§1) DiscoverX® KINOMEscan™ In Vitro Kinase Competition Binding Assay
(§2) Compound activity (% binding) is monitored by measuring the amount of kinase captured in test versus control samples by using a qPCR method that detects the associated DNA label. The binding activity is converted to % inhibition and an IC50 value is determined for CSF-1R fold-selectivity assessment.
(§3) Assays to monitor binding to a 468-kinase panel are conducted at DiscoverX® Corporation (Fremont, CA). Test compound is provided as a 10 mM stock in 100% DMSO and evaluated at […] final concentrations. Kinases are tagged with DNA for qPCR detection. […] The liganded beads are blocked with excess biotin and washed with blocking buffer (Pierce SeaBlock, 1% BSA, 0.05% Tween 20 and 1 mM DTT) to remove unbound ligand and to reduce nonspecific binding. […] Test compound is prepared as a 40×stock in 100% DMSO and directly diluted into the assay. All reactions are performed in polypropylene 384-well plates in a final volume of 0.02 mL. […] The kinase concentration in the eluates is measured by qPCR. […]
(§4) The percent inhibition values, and the 3-point concentration response data are subsequently determined and analyzed with NGR software, and non-standard IC50 values are calculated from the resulting curve fit. […]

KIT V559D = molecular target: T2, KIT V559D (Homo sapiens, UniProt P10721, V559D); assay: DiscoverX KINOMEscan kinase competition binding assay, KIT V559D; settings: 2 μM compound concentration
T2 construct: purchased DiscoverX Corporation (Fremont, CA), contract assay
T2 sequence (P10721 26-976 V559D): as the sequence (P10721 26-976) above, with V534D counted along it
Method: as §1, §2, §3, §4

KIT L576P = molecular target: T3, KIT L576P (Homo sapiens, UniProt P10721, L576P); assay: DiscoverX KINOMEscan kinase competition binding assay, KIT L576P; settings: 2 μM compound concentration
T3 construct: purchased DiscoverX Corporation (Fremont, CA), contract assay
T3 sequence (P10721 26-976 L576P): as the sequence (P10721 26-976) above, with L551P counted along it
Method: as §1, §2, §3, §4

KIT V559D V654A = molecular target: T4, KIT V559D V654A (Homo sapiens, UniProt P10721, V559D/V654A); assay: DiscoverX KINOMEscan kinase competition binding assay, KIT V559D V654A; settings: 2 μM compound concentration
T4 construct: purchased DiscoverX Corporation (Fremont, CA), contract assay
T4 sequence (P10721 26-976 V559D/V654A): as the sequence (P10721 26-976) above, with V534D, V629A counted along it
Method: as §1, §2, §3, §4

PDGFRB = molecular target: T5, PDGFRB (Homo sapiens, UniProt P09619); assay: DiscoverX KINOMEscan kinase competition binding assay, PDGFRB
T5 construct: purchased DiscoverX Corporation (Fremont, CA), contract assay
T5 sequence (P09619 33-1106): as the sequence (P09619 33-1106) above
Method: as §1, §2, §3, §4

468-kinase panel = assay: DiscoverX KINOMEscan kinase competition binding assay, whole panel; set-up: species or system human; settings: of 468 protein kinases, 2 μM compound concentration
Method: as §1, §2
Assays to monitor binding to a 468-kinase panel are conducted at DiscoverX® Corporation (Fremont, CA). […] Kinases are tagged with DNA for qPCR detection. […] The liganded beads are blocked with excess biotin and washed with blocking buffer (Pierce SeaBlock, 1% BSA, 0.05% Tween 20 and 1 mM DTT) to remove unbound ligand and to reduce nonspecific binding. […] Test compound is prepared as a 40×stock in 100% DMSO and directly diluted into the assay. All reactions are performed in polypropylene 384-well plates in a final volume of 0.02 mL. […] The kinase concentration in the eluates is measured by qPCR. The results for primary screen binding interactions are reported as ‘% Ctrl’, where lower numbers indicate stronger hits in the matrix.
Percent of control (% Ctrl) calculation: […]
as §4

[1] = tested on: P301S mouse tauopathy model; settings: cited from earlier work
[2] = tested on: 5xFAD model of Alzheimer's disease; settings: cited from earlier work

SMILES: COc1ccc(COc2ncc(Cc3ccnc(-c4cnn(C)c4)n3)cc2OC)nc1 [Example 1, 4-({5-Methoxy-6-[(5-methoxypyridin-2-yl)methoxy]pyridin-3-yl}methyl)-2-(1-methyl-1H-pyrazol-4-yl)pyrimidine]
- pIC50 (human PDGFRβ): < 4.70
- inhibition at 2 µM (KIT): 99.4%
- inhibition at 2 µM (KIT V559D): 99.5%
- inhibition at 2 µM (KIT L576P): 96.4%
- inhibition at 2 µM (KIT V559D V654A): 84%
- inhibition at 2 µM (PDGFRB): 90.8%
- number of kinases showing less than 35% control activity (or >65% inhibition) (468-kinase panel): 3 kinases

SMILES: CC1(C)CC=C(c2nc(C3CC(C)(C)OC(C)(C)C3)ccc2NC(=O)c2nc(C#N)c[nH]2)CC1 [JNJ-40346527]
- effect on tau phosphorylation and aggregation [1]: inhibit tau phosphorylation and aggregation

SMILES: FC(F)(F)c1ccc(CNc2ccc(Cc3c[nH]c4ncc(Cl)cc34)cn2)cn1 [PLX3397]
- effect on amyloid pathology [2]: Reductions in intraneuronal amyloid, neuritic plaque formation and pre-fibrillar and fibrillar oligomers
- effect on cognitive function [2]: improvements in cognitive function
